Data: patent US20090012071A1, “4-SUBSTITUTED-1H-ISOTHIAZOLO[5,4-B][1,4]OXAZINO[2,3,4-IJ]QUINOLINE-7,8(2H,9H)-DIONES AND RELATED COMPOUNDS AS ANTI-INFECTIVE AGENTS” (priority 2007, published 2009)

Tests used:
[1] = tested on: MRSA S. aureus (FQR700699); assay: Minimum inhibitory concentration (MIC) assay, broth microdilution; assay type: cell-based; set-up: MIC MRSA: unit not given beside the values; details: for MIC MRSA: Table I
Description: (§1) The antimicrobial activity of the compounds of the invention may be evaluated by a number of methods, including the following visual minimum inhibitory concentration (MIC) assay. This assay determines the minimum concentration of compound required to inhibit growth of a bacterial strain.
(§2) Whole-cell antibacterial activity is determined by broth microdilution using conditions recommended by the NCCLS (see National Committee for Clinical Laboratory Standards. 2001. Performance standards for antimicrobial susceptibility testing: 11th informational supplement. Vol. 21, no. 1, M100-S11. National Committee for Clinical Laboratory Standards, Wayne, Pa.). Test compounds are dissolved in DMSO and diluted 1:50 in Mueller-Hinton II broth (Becton-Dickinson) to produce a 256 μg/ml stock solution. In a 96-well microtiter plate, the compound solution is serially two-fold diluted in Mueller-Hinton II broth. After the compounds are diluted, a 50 μl aliquot of the test organism (˜1×10^6 cfu/mL) is added to each well of the microtiter plate. The final test concentrations ranges from 0.125-128 μg/mL. Inoculated plates are incubated in ambient air at 37° C. for 18 to 24 hours. The organisms selected for testing included laboratory strains S. aureus ATCC 29213 and E. coli ATCC 25922 (strains purchased from American Type Culture Collection, Manassas, Va.), S. aureus FQR700699, and Paeruginosa 27853. The minimum inhibitory concentration (MIC) is determined as the lowest concentration of compound that inhibited visible growth of the test organism.

E. coli ATCC 25922 = assay: as above; assay type: cell-based
Description: as §1
as §2, with “The organisms selected for testing included laboratory strains S. aureus ATCC 29213 and E. coli ATCC 25922 (strains purchased from American Type Culture Collection, Manassas, Va.), S. aureus FQR700699, and Paeruginosa 27853.” left out

[2] = tested on: S. aureus ATCC 29213 (MSSA); assay: as above; assay type: cell-based; details: methicillan sufficient S. aureus
Description: as §1
as §2, with “The organisms selected for testing included laboratory strains S. aureus ATCC 29213 and E. coli ATCC 25922 (strains purchased from American Type Culture Collection, Manassas, Va.), S. aureus FQR700699, and Paeruginosa 27853.” left out

[3] = tested on: CHO (Chinese hamster ovary); details: CHO cells, positive control; cited from earlier work
[4] = tested on: Hep 2 (laryngeal carcinoma); details: Hep 2 cells, positive control; cited from earlier work

With `C[C@H]1COc2c(N3CCN(C)CC3)c(F)cc3c(=O)c4c(=O)[nH]sc4n1c23` [compound 6, (S)-5-fluoro-1-methyl-4-(4-methylpiperazin-1-yl)-1H-isothiazolo[5,4-b][1,4]oxazino[2,3,4-ij]quinoline-7,8(2H,9H)-dione] the “MIC MRSA” value [1] was 4.
With `C[C@H]1COc2c(N3CC[C@@H](C(C)(C)N)C3)c(F)cc3c(=O)c4c(=O)[nH]sc4n1c23` [Compound II, (S)-4-((R)-3-(2-aminopropan-2-yl)pyrrolidin-1-yl)-5-fluoro-1-methyl-1H-isothiazolo[5,4-B][1,4]oxazino[2,3,4-ij]quinoline-7,8(2H,9H)-dione] the “minimal inhibitory concentration (MIC)” value (E. coli ATCC 25922) was 0.062, the “minimal inhibitory concentration (MIC)” value [2] was 0.016 and the “minimal inhibitory concentration (MIC)” value ([1]; methicillan resistant S. aureus) was 0.125.
For `C[C@H]1COc2c(N3CC[C@H](N)C3)c(F)cc3c(=O)c4c(=O)[nH]sc4n1c23` [compound 7, (S)-4-((S)-3-aminopyrrolidin-1-yl)-5-fluoro-1-methyl-1H-isothiazolo[5,4-b][1,4]oxazino[2,3,4-ij]quinoline-7,8(2H,9H)-dione], the “MIC MRSA” value [1] was 1.
In the case of `C[C@H]1COc2c(N3CC[C@@H](CN)C3)c(F)cc3c(=O)c4c(=O)[nH]sc4n1c23` [compound 8, (S)-4-((S)-3-(aminomethyl)pyrrolidin-1-yl)-5-fluoro-1-methyl-1H-isothiazolo[5,4-b][1,4]oxazino[2,3,4-ij]quinoline-7,8(2H,9H)-dione], the “MIC MRSA” value [1] is reported as 0.5.
For `CC(C)(C)c1ccc(C(O)CCCN2CCC(C(O)(c3ccccc3)c3ccccc3)CC2)cc1` (stereo not drawn) [Terfenadine], the CC50 [3] is listed as 4.3 to 6.5 µM and the CC50 [4] is listed as 3 to 5 µM.
With `C[C@H]1COc2c(N3CCNCC3)c(F)cc3c(=O)c4c(=O)[nH]sc4n1c23` [compound 9, (S)-5-fluoro-1-methyl-4-(piperazin-1-yl)-1H-isothiazolo[5,4-b][1,4]oxazino[2,3,4-ij]quinoline-7,8(2H,9H)-dione] the “MIC MRSA” value [1] was 8.
